The target of test [1] is BTK protein in human whole blood (Homo sapiens (Human), UniProt Q06187). The test can be described thus: Btk protein in human whole blood MSD ELISA based assay (Btk degradation). The conditions noted are these: human whole blood from healthy donors, 6 hours at 37° C., half maximal degradation concentration; read-out: hWB BTK DC50. The class given is cell-based. The method, then: Btk protein degradation was tested using an Meso Scale Discovery-ELISA system (MSD-ELISA): (1) Test compounds were added to human whole blood; (2) human whole blood cells treated with test compounds were lysed; (3) lysed cells were treated with capture antibody, an antibody to Btk; (4) lysed cells were treated with […] to Btk; and (5) lysed cells were treated with anti-mouse antibody (tagged).
BTK protein in human whole blood, sequence (Q06187 whole entry): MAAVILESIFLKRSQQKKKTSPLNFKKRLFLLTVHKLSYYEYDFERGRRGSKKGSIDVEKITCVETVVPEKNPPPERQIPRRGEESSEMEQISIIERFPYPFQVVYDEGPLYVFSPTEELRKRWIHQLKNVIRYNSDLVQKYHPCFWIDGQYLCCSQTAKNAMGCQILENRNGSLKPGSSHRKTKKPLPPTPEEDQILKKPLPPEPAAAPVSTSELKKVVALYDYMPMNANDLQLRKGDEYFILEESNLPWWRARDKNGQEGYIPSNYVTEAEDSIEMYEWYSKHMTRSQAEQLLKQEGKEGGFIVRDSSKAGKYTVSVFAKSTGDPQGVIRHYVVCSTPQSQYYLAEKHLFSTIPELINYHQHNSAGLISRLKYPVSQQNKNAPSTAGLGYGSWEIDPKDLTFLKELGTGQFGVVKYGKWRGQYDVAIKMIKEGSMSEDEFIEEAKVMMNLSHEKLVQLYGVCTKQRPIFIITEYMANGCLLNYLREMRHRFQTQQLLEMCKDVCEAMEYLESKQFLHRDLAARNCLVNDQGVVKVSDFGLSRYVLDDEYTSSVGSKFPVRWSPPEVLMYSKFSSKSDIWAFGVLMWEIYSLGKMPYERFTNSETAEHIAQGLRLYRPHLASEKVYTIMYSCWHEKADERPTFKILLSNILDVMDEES
Specifically, about 80 μl of fresh human whole blood from healthy donors was transferred into each well of a 96-well V-bottom plate (Costar, Cat No.3894). Using a TECANTM D300e Digital Dispenser (Tecan)), 1:4 serially diluted compounds [(8 pt assay) in DMSO solution (final 0.2%) starting at 3 μM top concentration], were added in duplicate. Thereafter, plates were placed in a 37° C. incubator and incubated for 6 hours.
At the end of incubation, 80 μl of 2× CST lysis buffer (Cell Signaling Technology, Cat No. 9803), prepared from a 10× stock solution, was added per well to lyse the blood. Plates were then sealed with a plate sealer and the samples were frozen overnight at −80° C.
Total amount of BTK protein remaining in the blood samples after compound treatment was measured using MSD-ELISA. After thawing the frozen plates, blood lysates were mixed thoroughly and transferred to small spot high-bind MSD plates (Meso Scale Discovery, Cat No. L45XB-3) and coated with capturing antibody, rabbit anti-human BTK (D3H5) (Cell Signaling Technology, Cat No. 8547CF). Thereafter, primary detection antibody, mouse anti-human BTK monoclonal antibody, (BD Biosciences, Cat No. 611117) and secondary detection antibody, anti-mouse SULFO-TAG (Meso Scale Discovery, Cat No. R32AC-1) were added. The assay plates were read on an MSD S600 plate reader by the addition of 2× MSD read buffer (Meso Scale Discovery, R92TC-1). All reagent transfers, including blood lysis, was conducted using a Biomed i7 liquid handler. From the dose response curves, DC50 values were calculated by averaging data from duplicate experiments. and Curve fitting was done by non-linear regression using GraphPad Prism. The DC50 values are reported in Table 2 in the hWB BTK DC50 (nM) column The Dmax values represent the maximum amount of BTK degradation observed upon compound treatment compared to DMSO only treated samples. The dMax (%) values are reported in Table 2 in the hWB BTK dMax (%) column.
(In general: An ELISA detects its analyte on a solid surface through an enzyme-linked reagent.)

Another test addresses BTK in mouse bone marrow (Mus musculus (Mouse), UniProt P35991). The test can be described thus: Mouse Bone Marrow Assay (MSD ELISA of BTK degradation in mouse bone marrow). The class given is in vivo. The settings on record: female C57BL/6J mice, single dose of Dose A, bone marrow collected after 24 hours, % remaining BTK in vehicle versus treated samples. On the procedure: Female C57BL/6J mice (Jackson Laboratories) were used for this study. Compounds or vehicle/control were prepped with EtOH; PEG-400; Phosal 53 MCT (10:30:60, v/v). Four mice were tested per compound or vehicle/control. On Day 1, mice were administered a single dose of Dose A. On Day 2 (after 24 hours), tissue (bone marrow) was collected from one hind leg per mouse.
An MSD (Meso Scale Discovery) ELISA (enzyme-linked immunosorbent assay) based assay was used to determine BTK degradation in mouse bone marrow. The following materials and equipment were used: 10% NP40 solution (nonionic polyoxyethylene surfactant, ThermoFisher, cat no. 28324); protease inhibitor mini tablet (Roche, cat no. 05 892 970 001); PhosphoSTOP™ tablet (Roche, cat no. 04 906 837 001); Pierce™ BCA Protein Assay Kit (Thermofisher, Cat No. 23225); Precellys® 2 mL lysing tube with 2.8 mm beads (VWR, cat no. 10032-756); Bertin Precellys® 24/Cryolys ® cooling system; 96-well MSD streptavidin pre-coated plates (MSD, cat no. L15SA-1); MSD Blocker A (MSD, cat no. R93BA-4); capture antibody, biotinylated BTK mAb (BD Biosciences, cat no. 624008; custom order); primary detection antibody, BTK RpAb (rabbit polyclonal antibody, CST, cat no. 8547S, D3H5 clone); secondary detection antibody, anti-Rabbit-Sulfo-Tag (MSD, cat no. R32AB-1); read Buffer, 4× (MSD, cat no. R92TC-1); recombinant BTK protein (Thermofisher, cat no. PR5442A); MSD Tris Wash Buffer (10×) (MSD, cat no. R61TX-1); PBS (phosphate-buffered saline); deionized water (diH2O); Lysis Buffer [0.2% NP40 in PBS+Protease Inhibitor tablet (1 tablet/10 mL)+PhosphoSTOP tablet (1 tablet/10 mL)]; 3% MSD Blocker A [MSD Blocker A+450 mL diH2O+50 mL]; and 10× MSD Tris Wash Buffer.
Lysis buffer [(PBS+0.2% NP40+PI (protease inhibitor)+PhosphoSTOP)]was prepared and put on ice until it was fully cold. Ice cold lysis buffer […] was added to each Precellys® tube containing beads and bone marrow sample. Sample tubes were transferred into Precellys® machine and homogenized using 5000 rpm -2×20 seconds. The sample lysates were centrifuged at 14,000 rpm for 20 minutes at 4° C. after homogenizing.
The protein concentration was determined using Pierce™ BCA Protein Assay Kit following manufacturer's recommended protocol. The protein normalized working solution was prepared, using 30 μg protein per sample lysate for assay.
A 300 ng/ml working stock solution of recombinant BTK protein in lysis buffer was prepared, and the sample was serially diluted at 3-fold dilution (10-point assay, highest concentration was 300 ng/mL and lowest concentration was 0.015 ng/mL)
MSD plate coating: Coating antibody (biotinylated-BTK mAb) stock solution was prepared at 1 μg/mL in PBS buffer. 50 μL/well capture antibody (Biotinylated BTK mAb) solution was added, and the plates were shaken gently at ambient temperature for two hours. The plates were washed 3 times with 1× MSD Tris Wash Buffer in a plate washer (300 μL/well), and the plates were blocked with 3% MSD Blocker A (150 μL/well). The plates were incubated for an additional 1-2 hours at ambient temperature with gentle shaking. The plates were washed 3 times with 1× MSD wash buffer using plate washer. Bone marrow lysates (30 μg) at a final volume of 50 μL/well were added into the plates. The serially diluted standard samples were added to the same plates at a final volume of 50 μL/well. The plates were incubated overnight at 4° C. with gentle shaking.
The plates were washed three times with 1× MSD wash buffer (prepared from 10× concentration buffer) using plate washer. Primary detection antibody at 50 μL/well was added (BTK RpAb; 1:1000 dilution in 1% MSD Blocker A). The plates were incubated for two hours at ambient temperature with gentle shaking. The plates were washed three times with 1× MSD wash buffer using plate washer. Anti-Rabbit-SULFO-TAG secondary antibodies (50 μl/well) were added, 1:500 diluted in 1% MSD Blocker A, and the plates were incubated for one to two hours at ambient temperature. […]

BTK in mouse bone marrow, sequence (P35991 whole entry): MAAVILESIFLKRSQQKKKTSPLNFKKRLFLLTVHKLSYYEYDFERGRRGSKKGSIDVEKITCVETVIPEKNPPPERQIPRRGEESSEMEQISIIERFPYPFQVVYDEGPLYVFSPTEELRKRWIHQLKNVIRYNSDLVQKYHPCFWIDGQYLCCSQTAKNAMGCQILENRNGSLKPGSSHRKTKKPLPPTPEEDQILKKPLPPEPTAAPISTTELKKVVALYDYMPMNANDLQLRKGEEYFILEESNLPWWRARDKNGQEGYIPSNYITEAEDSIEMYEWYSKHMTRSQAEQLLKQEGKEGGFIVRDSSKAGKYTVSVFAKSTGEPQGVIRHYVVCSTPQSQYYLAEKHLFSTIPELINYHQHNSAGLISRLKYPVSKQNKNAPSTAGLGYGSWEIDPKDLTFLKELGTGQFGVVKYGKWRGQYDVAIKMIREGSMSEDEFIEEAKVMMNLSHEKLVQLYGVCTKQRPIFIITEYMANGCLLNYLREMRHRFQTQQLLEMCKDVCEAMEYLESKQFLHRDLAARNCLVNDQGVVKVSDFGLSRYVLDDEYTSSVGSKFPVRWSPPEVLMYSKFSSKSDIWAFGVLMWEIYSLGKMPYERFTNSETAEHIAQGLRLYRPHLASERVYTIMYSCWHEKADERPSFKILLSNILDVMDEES

One may read the DC50 as the concentration at which degradation of the target reaches its halfway point. On to `Cc1c([C@@H](C)NC(=O)c2nc(C(C)(C)C)no2)ccc(-c2cc(Nc3ccc(N4CCN(CCc5ccc(N6CCC(=O)NC6=O)cc5)C[C@@H]4C)cn3)ncn2)c1F` [Example 10, 3-tert-butyl-N-[(1R)-1-{4-[6-({5-[(2S)-4-{2-[4-(2,4-dioxo-1,3-diazinan-1-yl)phenyl]ethyl}-2-methylpiperazin-1-yl]pyridin-2-yl}amino)pyrimidin-4-yl]-3-fluoro-2-methylphenyl}ethyl]-1,2,4-oxadiazole-5-carboxamide], for which the DC50 in test [1] was 3.04 nM. Further, the “Mouse Bone Marrow (%), % remaining BTK” value on BTK in mouse bone marrow stood at 9%.

As to `Cc1c([C@@H](C)NC(=O)c2nc(C(C)(C)C)no2)ccc(-c2cc(Nc3ccc(N4CCN(CCc5ccc(N6CCC(=O)NC6=O)cc5)CC4)cn3)ncn2)c1F` [Example 11, 3-tert-butyl-N-{(1R)-1-[4-(6-{[5-(4-{2-[4-(2,4-dioxo-1,3-diazinan-1-yl)phenyl]ethyl}piperazin-1-yl)pyridin-2-yl]amino}pyrimidin-4-yl)-3-fluoro-2-methylphenyl]ethyl}-1,2,4-oxadiazole-5-carboxamide], the half-maximal degradation concentration (DC50) in test [1] worked out at 4.31 nM. Moreover, on BTK in mouse bone marrow, the “Mouse Bone Marrow (%), % remaining BTK” value amounted to 29%.

(Values after US20240109877A1, “PYRIMIDINES FOR DEGRADING BRUTON'S TYROSINE KINASE” (AbbVie Inc., priority 2022, published 2024).)
